The source of these data is patent US20150320696A1, “COMBINATION THERAPY FOR CANCER” (priority 2012, published 2015).

Series [1] deals with drug (adriamicin)-resistant cell line (ADR). The conditions noted are these: cell line expressing high levels of P-glycoprotein; Calcabrini A et al., 2004; cited from earlier work.
The test system of series [2] is prostate cancer cell line DU145. As to the kind of experiment: MTT cytotoxic assay, DU145 cells. The series is classed as cell-based, Human. On the procedure:
(§1) Androgen-independent, highly anaplastic prostate cancer cell line with moderate metastatic potential, DU145; Aggressive androgen-independent anaplastic cell line, CL-1; and the colorectal adenocarcinoma DLD1 cells were grown in RPMI-1640 medium supplemented with 5% HI-FBS.
(§2) The cytotoxic effects of terpinen-4-ol on cells were measured with the 3-[4,5-dimethylthiazol-2-yl]-2,5 diphenyltetrazolium (MTT) assay. Cells were seeded in 96-well plates (1×10^4 cells/well) in complete medium. After 12-16 hours of growth, different concentrations of each of the described agents were added to the cells in triplicates. 72 h later, the medium was replaced with fresh medium (100 μl per well) containing 1 mg/ml MTT and the cell were further incubated for 2 to 4 h. MTT-formazan crystals were dissolved by the addition of 100 μl extraction buffer. Absorbance at 570 nm and reference wavelength of 690 nm were recorded on an automated microplate reader. The relative number of viable cells compared to control cell line grown under the same condition, but without the added examined agent was determined.

In series [3] the test system is human M14 melanoma cells. The conditions noted are these: Calcabrini A et al., 2004; cited from earlier work.
In series [4] the test system is pancreatic cancer cell line COLO 357. As to the kind of experiment: MTT cytotoxic assay, COLO 357 cells. It counts as cell-based, Human. On the procedure:
as §2, with “Human colon adenocarcinoma grade II cells, HT29; Human colon carcinoma cells, HCT116; Human colonic carcinoma cells, COLO 320; Human cell line” for “The cytotoxic effects”, “metastatic pancreatic adenocarcinoma, COLO 357; Human pancreatic carcinoma epithelial-like cell line, PANC-1; and Human pancreatic carcinoma cells, MIA-PACA” for “terpinen-4-ol on cells”, “grown in high-glucose Dulbecco's modified Eagle's medium (DMEM) supplemented” for “measured”, “5% heat-inactivated (HI) fetal bovine serum (FBS), 1% Glutamine and streptomycin/penicillin. […]” for “the 3-[4,5-dimethylthiazol-2-yl]-2,5 diphenyltetrazolium (MTT) assay.”
On the technique in general: Formazan colour is commonly taken as a measure of viable cells.

Series [5] relates to colorectal cancer cell line HT29. As to the kind of experiment: MTT cytotoxic assay, HT29 cells. It counts as cell-based, Human. The method, then: as §2
Series [6] deals with cancer cell lines. As to the kind of experiment: MTT cytotoxic assay, all cancer cell lines examined (general statements). It counts as cell-based. Particulars: terpinen-4-ol at a concentration of 0.01%. The method, then: Human colon adenocarcinoma grade II cells, HT29; Human colon carcinoma cells, HCT116; Human colonic carcinoma cells, COLO 320; Human cell line of metastatic pancreatic adenocarcinoma, COLO 357; Human pancreatic carcinoma epithelial-like cell line, PANC-1; and Human pancreatic carcinoma cells, MIA-PACA were grown in high-glucose Dulbecco's modified Eagle's medium (DMEM) supplemented with 5% heat-inactivated (HI) fetal bovine serum (FBS), 1% Glutamine and streptomycin/penicillin.
as §1
The cytotoxic effects of terpinen-4-ol on cells were measured with the 3-[4,5-dimethylthiazol-2-yl]-2,5 diphenyltetrazolium (MTT) assay. Cells were seeded in 96-well plates (1×10^4 cells/well) in complete medium. After 12-16 hours of growth, different concentrations of each of the described agents were added to the cells in triplicates. […] Absorbance at 570 nm and reference wavelength of 690 nm were recorded on an automated microplate reader. The relative number of viable cells compared to control cell line grown under the same condition, but without the added examined agent was determined.

The test system of series [7] is murine B16 melanoma tumor cell line. Particulars: Greay S J et al., 2010; cited from earlier work.
The test system of series [8] is DLD-1 colorectal cancer cell line xenograft. Kind of series: Xenograft model of nude mice bearing DLD-1 colorectal cancer cell line. It counts as in vivo, athymic nude mice. The method, then: Male athymic nude mice, 6-8 weeks old, (Harlan Laboratories) were housed in sterile cages and handled with aseptic precautions. The mice were fed ad libitum. The therapeutic anti-cancer activity of terpinen-4-ol alone or in combination with additional anti-cancer agents was examined as follows: exponentially growing DLD1 cancer cells were harvested and resuspended at a final concentration of 5×10^6 cells per 0.2 ml PBS per injection. The cells were injected subcutaneously at two sites on the backs of the mice. When tumors were palpable, mice were randomly divided into the treatment groups as described hereinbelow.
At the 9th day after cell injection mice were randomly divided into treatment and control groups and the treatment was started by intra-tumor injection. The control group (5 mice) received 50 μl of a PBS solution with 1% DMSO; the treatment group (5 mice) received 50 μl of PBS solution with 1% DMSO containing 0.1% (v/v) terpinen-4-ol (1A).
Mice were treated every second day. The mice were weighed and tumor volume was measured every three days (with a caliper) starting from the onset of treatment with terpinen-4-ol/control. Tumor volume was calculated as 4/3π·a·b^2. At the end of the experiment, the mice were sacrificed by cervical dislocation after anesthesia and the tumors were excised and measured for volume and weight. Half of each tumor was preserved in −80° C. and the other half was preserved in 4% formaldehyde.
At the 11th day after cell implantation, mice were randomly divided into groups and the treatment started. The chemotherapeutic agent (cetuximub, referred to hereinafter by its trade name Erbitox®) was administered via intraperitoneal (i.p) injection 24 hours before administration of terpinen-4-ol. The terpinen-4-ol was administered directly into the tumor (intra-tumor injection).
Mice were treated every second day for 2 weeks. Mice were weighed and tumor volume was measured with a caliper before each additional treatment. Tumor volume was calculated as 4/3π·a·b^2.

The subject of series [9] is colorectal cancer cell line DLD1. As to the kind of experiment: MTT cytotoxic assay, DLD1 cells. It counts as cell-based. The method, then:
as §2

Series [10] relates to murine AE17 mesothelioma tumor cell line. Particulars: Greay S J et al., 2010; cited from earlier work.
Series [11] deals with prostate cancer cell line CL-1. As to the kind of experiment: MTT cytotoxic assay, CL-1 cells. The series is classed as cell-based. The method, then: as §1, §2
The test system of series [12] is pancreatic cancer cell line PANC-1. As to the kind of experiment: MTT cytotoxic assay, PANC-1 cells. The series is classed as cell-based, Human. The method, then:
as §2

In series [13] the test system is pancreatic cancer cell line MIA-PACA. As to the kind of experiment: MTT cytotoxic assay, MIA-PACA cells. It counts as cell-based, Human. On the procedure: as §2

Structures are written as SMILES.

With `CC1=CCC(O)(C(C)C)CC1` (stereo not drawn) [terpinen-4-ol, 4-methyl-1-(1-methylethyl)-3-cyclohexen-1-ol], in series [1], the “effectiveness relative to parental M14 cells” value is recorded as “more effective”. Also, the “concentration dependence of cytotoxic effect” value in series [2] (0.005%, 0.01%, 0.02% and 0.10% (v/v), FIG. 2C) is recorded as “concentration dependent”; in series [4] (0.005%, 0.01%, 0.02% and 0.10% (v/v), FIG. 2G) it was “concentration dependent”; in series [5] (0.005%, 0.01%, 0.02% and 0.10% (v/v), FIG. 2B), “concentration dependent”; in series [9] (0.005%, 0.01%, 0.02% and 0.10% (v/v), FIG. 2A), “concentration dependent”; in series [11] (0.005%, 0.01%, 0.02% and 0.10% (v/v), FIG. 2D), “concentration dependent”; in [12] (0.005%, 0.01%, 0.02% and 0.10% (v/v), FIG. 2F), “concentration dependent”. Moreover, the “concentration dependence of cytotoxic effect” value in [13] (0.005%, 0.01%, 0.02% and 0.10% (v/v), FIG. 2E) is given as “concentration dependent”. Moreover, the “dependence of cytotoxic activity on DMSO” value is recorded as “does not depend on the presence of DMSO” in series [2] (0.01% DMSO added to medium containing 0.01%, 0.05% or 0.10% terpinen-4-ol, FIG. 1F); “does not depend on the presence of DMSO” in series [4] (0.01% DMSO added to medium containing 0.01%, 0.05% or 0.10% terpinen-4-ol, FIG. 1E); “does not depend on the presence of DMSO” in [5] (0.01% DMSO added to medium containing 0.01%, 0.05% or 0.10% terpinen-4-ol, FIG. 1B); “does not depend on the presence of DMSO” in series [9] (0.01% DMSO added to medium containing 0.01%, 0.05% or 0.10% terpinen-4-ol, FIG. 1A); “does not depend on the presence of DMSO” in series [11] (0.01% DMSO added to medium containing 0.01%, 0.05% or 0.10% terpinen-4-ol, FIG. 1G); “does not depend on the presence of DMSO” in [12] (0.01% DMSO added to medium containing 0.01%, 0.05% or 0.10% terpinen-4-ol, FIG. 1C). Moreover, the “dependence of cytotoxic activity on DMSO” value in [13] (0.01% DMSO added to medium containing 0.01%, 0.05% or 0.10% terpinen-4-ol, FIG. 1D) is reported as “does not depend on the presence of DMSO”. In addition, the “effect on cell growth” value in series [3] is “impair the growth”. Moreover, the “cytotoxic activity in the presence of DMSO compared to without” value in series [5] (0.01% DMSO, FIG. 1B) is recorded as “lower activity”. Also, the cytotoxic effectiveness result in series [6] is “moderately effective”. The anti-proliferative effect entry in series [7] and in [10] was “significant anti-proliferative effects” each time. In addition, in [8] (Example 5, intra-tumor injection of 50 μl 0.1% terpinen-4-ol (about 1.65 mg/Kg per injection) every second day, vs control, FIG. 5A), the “volume of the implanted tumor” value was “significantly reduced”. Moreover, the “weight of the implanted tumor” value in series [8] (Example 5, intra-tumor injection of 50 μl 0.1% terpinen-4-ol (about 1.65 mg/Kg per injection) every second day, vs control, end of assay, FIG. 5B) is on record as “significantly reduced”. Also, the “effect on the tumor growth” value in [8] (Example 6, 0.1% terpinen-4-ol intra-tumor, after two weeks of treatment) is “only minor effect”. The “reduction of tumor size compared to control” value in series [8] (Example 6, 50 μl 0.1% terpinen-4-ol intra-tumor every second day, after two weeks of treatment, FIG. 6) is reported as “about 3.7%”.
